Experimental data: PubChem BioAssay AID2060338 (Molecular Pharmacology Branch, DTP, NCI, 2025)

Tested on: 556581-035-R-J1-PDC spheroids with HUVEC/MSC, viability
Test: Anticancer human tumor 556581-035-R-J1-PDC patient-derived ovarian carcinoma cell line growth inhibition [IpAb]
Conditions: for IC50: curve of first compound; for viability, T/C: stronger effect = lower value
Method in brief: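 Multi-cell spheroids of 60% tumour cells, 25% HUVEC and 15% MSC in ultra-low-attachment U-bottom wells, treated with agents combined with ipatasertib or abemaciclib. Half-log ranges top out near clinical Cmax, or 10 microM when Cmax is unknown.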

[1] = second compound 0.01 µM, first compound 0.0316 µM
[2] = second compound 0.01 µM, first compound 0.1 µM
[3] = second compound 0.0316 µM, first compound 0.0316 µM
[4] = second compound 0.0316 µM, first compound 0.1 µM
[5] = second compound 0.1 µM, first compound 0.0316 µM
[6] = second compound 0.1 µM, first compound 0.1 µM
[7] = second compound 0.1 µM, first compound 0.316 µM
[8] = second compound 0.1 µM, first compound 1 µM
[9] = second compound 0.1 µM, first compound 3.16 µM
[10] = second compound 0.1 µM, first compound 10 µM
[11] = second compound 0.316 µM, first compound 0.0316 µM
[12] = second compound 0.316 µM, first compound 0.1 µM
[13] = second compound 0.316 µM, first compound 0.316 µM
[14] = second compound 0.316 µM, first compound 1 µM
[15] = second compound 0.316 µM, first compound 3.16 µM
[16] = second compound 0.316 µM, first compound 10 µM
[17] = second compound 1 µM, first compound 0.0316 µM
[18] = second compound 1 µM, first compound 0.1 µM
[19] = second compound 1 µM, first compound 0.316 µM
[20] = second compound 1 µM, first compound 1 µM
[21] = second compound 1 µM, first compound 3.16 µM
[22] = second compound 1 µM, first compound 10 µM
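Note: spheroids exposed to compounds for 7 days before readout.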

Compound Cn1cnc2c(F)c(Nc3ccc(Br)cc3Cl)c(C(=O)NOCCO)cc21 + CCN1CCN(Cc2ccc(Nc3ncc(F)c(-c4cc(F)c5nc(C)n(C(C)C)c5c4)n3)nc2)CC1 has an IC50 (second compound 0.01 µM) of 0.876 µM, an IC50 (second compound 0.0316 µM) of 1.13 µM and an IC50 (second compound 0.1 µM) of 0.87 µM. It also gave an IC50 (second compound 0.316 µM) of 1.17 µM, an IC50 (second compound 1 µM) of 1.21 µM and a viability, T/C (second compound 0.01 µM, first compound 0.00949 µM) of 118%. It also gave a viability, T/C (second compound 0.01 µM, first compound 0.03 µM) of 111%, a viability, T/C (second compound 0.01 µM, first compound 0.0949 µM) of 108% and a viability, T/C (second compound 0.01 µM, first compound 0.3 µM) of 78.7%. It also gave a viability, T/C (second compound 0.01 µM, first compound 0.949 µM) of 49%, a viability, T/C (second compound 0.01 µM, first compound 3 µM) of 18.8% and a viability, T/C (second compound 0.0316 µM, first compound 0.00949 µM) of 102%. For the same compound, the viability, T/C (second compound 0.0316 µM, first compound 0.03 µM) was 121%, the viability, T/C (second compound 0.0316 µM, first compound 0.0949 µM) was 110% and the viability, T/C (second compound 0.0316 µM, first compound 0.3 µM) was 73.4%. The viability, T/C (second compound 0.0316 µM, first compound 0.949 µM) was 62.4%, the viability, T/C (second compound 0.0316 µM, first compound 3 µM) was 14.3% and the viability, T/C (second compound 0.1 µM, first compound 0.00949 µM) was 97.7%. For the same compound, the viability, T/C (second compound 0.1 µM, first compound 0.03 µM) was 95.1%, the viability, T/C (second compound 0.1 µM, first compound 0.0949 µM) was 98.6% and the viability, T/C (second compound 0.1 µM, first compound 0.3 µM) was 84%. The viability, T/C (second compound 0.1 µM, first compound 0.949 µM) was 47.4%, the viability, T/C (second compound 0.1 µM, first compound 3 µM) was 17.8% and the viability, T/C (second compound 0.316 µM, first compound 0.00949 µM) was 102%. The viability, T/C (second compound 0.316 µM, first compound 0.03 µM) was 102%, the viability, T/C (second compound 0.316 µM, first compound 0.0949 µM) was 104% and the viability, T/C (second compound 0.316 µM, first compound 0.3 µM) was 87.1%. The viability, T/C (second compound 0.316 µM, first compound 0.949 µM) was 56.8%, the viability, T/C (second compound 0.316 µM, first compound 3 µM) was 22.4% and the viability, T/C (second compound 1 µM, first compound 0.00949 µM) was 48%. For the same compound, the viability, T/C (second compound 1 µM, first compound 0.03 µM) was 62%, the viability, T/C (second compound 1 µM, first compound 0.0949 µM) was 59% and the viability, T/C (second compound 1 µM, first compound 0.3 µM) was 63.7%. The viability, T/C (second compound 1 µM, first compound 0.949 µM) was 58.6% and the viability, T/C (second compound 1 µM, first compound 3 µM) was 20.1%.

Work on CCCS(=O)(=O)Nc1ccc(F)c(C(=O)c2c[nH]c3ncc(-c4ccc(Cl)cc4)cc23)c1F + CCN1CCN(Cc2ccc(Nc3ncc(F)c(-c4cc(F)c5nc(C)n(C(C)C)c5c4)n3)nc2)CC1 yielded an IC50 (second compound 0.01 µM) greater than 10 µM, an IC50 (second compound 0.0316 µM) greater than 10 µM and an IC50 (second compound 0.1 µM) greater than 10 µM. The IC50 (second compound 0.316 µM) was greater than 10 µM, the IC50 (second compound 1 µM) was greater than 10 µM and the viability, T/C [1] was 114%. The viability, T/C [2] was 106%, the viability, T/C (second compound 0.01 µM, first compound 0.316 µM) was 123% and the viability, T/C (second compound 0.01 µM, first compound 1 µM) was 116%. For the same compound, the viability, T/C (second compound 0.01 µM, first compound 3.16 µM) was 129%, the viability, T/C (second compound 0.01 µM, first compound 10 µM) was 71.9% and the viability, T/C [3] was 99%. For the same compound, the viability, T/C [4] was 97.2%, the viability, T/C (second compound 0.0316 µM, first compound 0.316 µM) was 109% and the viability, T/C (second compound 0.0316 µM, first compound 1 µM) was 104%. It also gave a viability, T/C (second compound 0.0316 µM, first compound 3.16 µM) of 110%, a viability, T/C (second compound 0.0316 µM, first compound 10 µM) of 60.9% and a viability, T/C [5] of 128%. It also gave a viability, T/C [6] of 113%, a viability, T/C [7] of 123% and a viability, T/C [8] of 104%. For the same compound, the viability, T/C [9] was 100%, the viability, T/C [10] was 61% and the viability, T/C [11] was 105%. The viability, T/C [12] was 98.4%, the viability, T/C [13] was 99.1% and the viability, T/C [14] was 93.9%. The viability, T/C [15] was 77.6%, the viability, T/C [16] was 57.6% and the viability, T/C [17] was 67.7%. For the same compound, the viability, T/C [18] was 54.9%, the viability, T/C [19] was 73.1% and the viability, T/C [20] was 61%. It also gave a viability, T/C [21] of 57.2% and a viability, T/C [22] of 59.8%.

Compound CC1(C)CCC(CN2CCN(c3ccc(C(=O)NS(=O)(=O)c4ccc(NCC5CCOCC5)c([N+](=O)[O-])c4)c(Oc4cnc5[nH]ccc5c4)c3)CC2)=C(c2ccc(Cl)cc2)C1 + CC(C)NCC(C(=O)N1CCN(c2ncnc3c2C(C)CC3O)CC1)c1ccc(Cl)cc1 has an IC50 (second compound 0.1 µM) of 6.75 µM, an IC50 (second compound 0.316 µM) of 5.54 µM and an IC50 (second compound 1 µM) of 3.81 µM. The IC50 (second compound 3.16 µM) was 3.55 µM, the IC50 (second compound 10 µM) was less than 0.0316 µM and the viability, T/C [5] was 101%. The viability, T/C [6] was 90.5%, the viability, T/C [7] was 87.8% and the viability, T/C [8] was 104%. The viability, T/C [9] was 94.1%, the viability, T/C [10] was 27.1% and the viability, T/C [11] was 87.4%. It also gave a viability, T/C [12] of 76.7%, a viability, T/C [13] of 87.3% and a viability, T/C [14] of 76.1%. For the same compound, the viability, T/C [15] was 75%, the viability, T/C [16] was 24% and the viability, T/C [17] was 71.6%. For the same compound, the viability, T/C [18] was 76%, the viability, T/C [19] was 66.2% and the viability, T/C [20] was 64.8%. For the same compound, the viability, T/C [21] was 58.1%, the viability, T/C [22] was 18.2% and the viability, T/C (second compound 3.16 µM, first compound 0.0316 µM) was 57.2%. The viability, T/C (second compound 3.16 µM, first compound 0.1 µM) was 62.3%, the viability, T/C (second compound 3.16 µM, first compound 0.316 µM) was 58.4% and the viability, T/C (second compound 3.16 µM, first compound 1 µM) was 51.7%. For the same compound, the viability, T/C (second compound 3.16 µM, first compound 3.16 µM) was 54.4%, the viability, T/C (second compound 3.16 µM, first compound 10 µM) was 17.7% and the viability, T/C (second compound 10 µM, first compound 0.0316 µM) was 47.7%. The viability, T/C (second compound 10 µM, first compound 0.1 µM) was 44.6%, the viability, T/C (second compound 10 µM, first compound 0.316 µM) was 44.5% and the viability, T/C (second compound 10 µM, first compound 1 µM) was 48.1%. For the same compound, the viability, T/C (second compound 10 µM, first compound 3.16 µM) was 42.7% and the viability, T/C (second compound 10 µM, first compound 10 µM) was 4.35%.

For Cn1ncnc1[C@H]1c2n[nH]c(=O)c3cc(F)cc(c23)N[C@@H]1c1ccc(F)cc1 + CCN1CCN(Cc2ccc(Nc3ncc(F)c(-c4cc(F)c5nc(C)n(C(C)C)c5c4)n3)nc2)CC1, the IC50 (second compound 0.01 µM) was greater than 0.1 µM, the IC50 (second compound 0.0316 µM) was greater than 0.1 µM and the IC50 (second compound 0.1 µM) was greater than 0.1 µM. The IC50 (second compound 0.316 µM) was 0.0838 µM, the IC50 (second compound 1 µM) was 0.00165 µM and the viability, T/C (second compound 0.01 µM, first compound 0.000316 µM) was 80.6%. It also gave a viability, T/C (second compound 0.01 µM, first compound 0.001 µM) of 107%, a viability, T/C (second compound 0.01 µM, first compound 0.00316 µM) of 80.9% and a viability, T/C (second compound 0.01 µM, first compound 0.01 µM) of 83.6%. It also gave a viability, T/C [1] of 84.1%, a viability, T/C [2] of 63.7% and a viability, T/C (second compound 0.0316 µM, first compound 0.000316 µM) of 84.9%. The viability, T/C (second compound 0.0316 µM, first compound 0.001 µM) was 82.8%, the viability, T/C (second compound 0.0316 µM, first compound 0.00316 µM) was 90.6% and the viability, T/C (second compound 0.0316 µM, first compound 0.01 µM) was 83.2%. The viability, T/C [3] was 61.3%, the viability, T/C [4] was 60% and the viability, T/C (second compound 0.1 µM, first compound 0.000316 µM) was 67.7%. For the same compound, the viability, T/C (second compound 0.1 µM, first compound 0.001 µM) was 81.3%, the viability, T/C (second compound 0.1 µM, first compound 0.00316 µM) was 84.9% and the viability, T/C (second compound 0.1 µM, first compound 0.01 µM) was 83.2%. The viability, T/C [5] was 63.1%, the viability, T/C [6] was 55.2% and the viability, T/C (second compound 0.316 µM, first compound 0.000316 µM) was 70.8%. For the same compound, the viability, T/C (second compound 0.316 µM, first compound 0.001 µM) was 77.8%, the viability, T/C (second compound 0.316 µM, first compound 0.00316 µM) was 69.8% and the viability, T/C (second compound 0.316 µM, first compound 0.01 µM) was 79.1%. It also gave a viability, T/C [11] of 59.2%, a viability, T/C [12] of 48.3% and a viability, T/C (second compound 1 µM, first compound 0.000316 µM) of 51.5%. The viability, T/C (second compound 1 µM, first compound 0.001 µM) was 59.2%, the viability, T/C (second compound 1 µM, first compound 0.00316 µM) was 43.1% and the viability, T/C (second compound 1 µM, first compound 0.01 µM) was 37.3%. It also gave a viability, T/C [17] of 41.9% and a viability, T/C [18] of 44.4%.
